# According to ChEMBL document CHEMBL4739717, “Methods of treating cartilage disorders through inhibition of clk and dyrk” (2020):
# Assays:
# [1] = biological target: Dual specificity tyrosine-phosphorylation-regulated kinase 1A (Homo sapiens, UniProt Q13627); test: Inhibition of recombinant DYRK1A (unknown origin) using Ser/Thr 18 peptide as substrate incubated for 1 hr in presence of ATP by FRET assay
# [2] = Inhibition of IL1-beta induced MMP3 expression levels in human chondrocytes assessed as MMP3 levels incubated for 2hrs followed by IL1-beta stimulation and measured after overnight incubation by LANCE assay; type: functional, cell-based; conditions: Chondrocyte
# [3] = biological target: Dual specificity protein kinase CLK3 (Homo sapiens, UniProt P49761); test: Inhibition of recombinant CLK3 (unknown origin) using Ser/Thr 18 peptide as substrate incubated for 1 hr in presence of ATP by FRET assay
# [4] = Effect on Wnt signaling pathway in human SW480 cells harbouring TCF/LEF luciferase reporter gene and SP5-Luc reporter gene incubated for 36 to 48 hrs by luminescence assay; type: cell-based
# [5] = Induction of chondrogenesis in human MSC assessed as maximum activity at 300 nM incubated for 6 days by rhodamine B and Nile red staining based imaging analysis relative to control; type: functional; conditions: BMMSC, 144 h, time 6 day
# [6] = Induction of chondrogenesis in human MSC assessed as incubated for 6 days by rhodamine B and Nile red staining based imaging analysis; type: functional; conditions: bmmsc
# Chain of Dual specificity protein kinase CLK3 (P49761 whole entry): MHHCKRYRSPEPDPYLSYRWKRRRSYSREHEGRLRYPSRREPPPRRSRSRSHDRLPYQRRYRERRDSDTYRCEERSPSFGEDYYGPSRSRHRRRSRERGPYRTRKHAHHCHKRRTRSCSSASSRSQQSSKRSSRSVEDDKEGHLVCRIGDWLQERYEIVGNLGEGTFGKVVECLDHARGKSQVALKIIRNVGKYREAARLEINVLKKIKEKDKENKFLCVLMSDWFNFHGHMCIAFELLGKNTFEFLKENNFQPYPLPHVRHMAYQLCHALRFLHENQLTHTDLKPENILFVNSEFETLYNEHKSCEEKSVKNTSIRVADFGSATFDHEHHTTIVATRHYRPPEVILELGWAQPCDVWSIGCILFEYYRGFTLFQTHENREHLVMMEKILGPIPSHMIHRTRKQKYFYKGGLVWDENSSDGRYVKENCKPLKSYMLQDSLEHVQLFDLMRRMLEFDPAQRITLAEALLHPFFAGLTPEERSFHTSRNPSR
Compound,EC50 [1] [µM],EC50 [2] [µM],EC50 [3] [µM],EC50 [4] [µM],Emax at 0.3 µM [5] [%],EC50 [6] [µM]
Fc1cccc(-c2cncc3[nH]c(-c4n[nH]c5ccc(-c6cnccn6)nc45)nc23)c1,> 10,3,> 10,> 10,–,–
COc1cccc(-c2cncc3[nH]c(-c4n[nH]c5ccc(-c6cn[nH]c6)nc45)nc23)c1,> 10,–,> 10,> 10,–,–
COc1cccc(-c2cncc3[nH]c(-c4n[nH]c5ccc(-c6cncc(NC(=O)C7CCCCC7)c6)nc45)nc23)c1,> 10,3,> 10,> 10,–,–
CC(F)(F)CN1CCC(C(=O)Nc2cc3cc(-c4cnco4)cnc3cn2)CC1,–,3,> 10,> 10,–,–
Fc1ccc(-c2cccc3[nH]c(-c4n[nH]c5ncc(-c6cncc(CN7CCCCC7)c6)cc45)cc23)cc1,> 10,0.0461,> 10,3.66,–,–
CN(C)CCOc1cc(C(=O)Nc2cc3cc(-c4cnn(C)c4)ccc3cn2)ccn1,–,1.01,0.03,–,–,–
O=C(Nc1c[nH]nc1C(=O)Nc1ccc(N2CCC(F)(F)C2)nc1)c1cncc(OC2CCNCC2)c1,0.01,0.28,–,2.22,75.2,–
FC1(F)CCN(Cc2cncc(-c3ccc4[nH]nc(-c5cc6cnccc6[nH]5)c4n3)c2)C1,0.003,–,–,0.045,134,0.3
CN(C)Cc1cncc(-c2ccc3[nH]nc(-c4cc5c(N6CCCCC6)cccc5[nH]4)c3c2)c1,0.071,–,–,0.575,205,0.01
Nc1cncc(-c2cnc3[nH]nc(-c4cc5c(-c6ccncc6)ccnc5[nH]4)c3c2)c1,0.019,–,> 10,> 10,–,–
CN1CC2CCC(C1)N2C(=O)Nc1cc2cc(-c3cnn(C)c3)ccc2cn1,–,–,> 10,> 10,–,–
COc1cccc(-c2cncc3[nH]c(-c4n[nH]c5ccc(-c6cccnc6)nc45)nc23)c1,0.03,–,–,> 10,59.2,0.03
Cc1ccncc1-c1ccc2[nH]nc(-c3cc4ccncc4[nH]3)c2c1,0.021,–,–,0.191,161,0.3
CCC(=O)Nc1cncc(-c2ccc3[nH]nc(-c4nc5c(N6CCCCC6)cncc5[nH]4)c3n2)c1,0.016,–,–,> 10,69.8,0.9
Fc1cccc(-c2ccnc3[nH]c(-c4n[nH]c5ncc(-c6cn[nH]c6)cc45)nc23)c1,0.016,–,–,0.0302,110,0.1
O=C(Nc1cncc(-c2cc3c(-c4cc5c(-c6cccc(F)c6)ccnc5[nH]4)n[nH]c3cn2)c1)C1CC1,> 10,0.298,> 10,0.0097,–,–
Nc1cncc(-c2cnc3[nH]nc(-c4cc5c(-c6ccccc6F)nccc5[nH]4)c3c2)c1,0.031,–,–,0.197,86,0.03
O=C(Nc1cncc(-c2cnc3[nH]nc(-c4nc5c(-c6cccnc6)cncc5[nH]4)c3c2)c1)C1CCC1,0.011,–,–,0.0354,130,0.3
CN(C)Cc1cncc(-c2cc3c(-c4nc5c(-c6cccc(F)c6)cccc5[nH]4)n[nH]c3cn2)c1,0.015,–,–,0.0822,311,0.1
CCC(=O)Nc1cncc(-c2cc3c(-c4cc5c(N6CCN(C)CC6)nccc5[nH]4)n[nH]c3cn2)c1,0.003,–,–,> 10,70,0.03
CC(C)(C)C(=O)Nc1cncc(-c2cnc3[nH]nc(-c4nc5c(-c6ccoc6)cncc5[nH]4)c3c2)c1,0.012,–,–,0.07,144,0.03
CN1CCN(c2ccnc3[nH]c(-c4n[nH]c5cnc(-c6cncc(CNCC7CCCC7)c6)cc45)cc23)CC1,0.051,–,–,> 10,150,0.3
Nc1cncc(-c2cc3c(-c4cc5c(-c6ccccc6F)nccc5[nH]4)n[nH]c3cn2)c1,0.005,–,–,0.224,117,0.01
Fc1ccccc1-c1nccc2[nH]c(-c3n[nH]c4cnc(-c5cn[nH]c5)cc34)cc12,0.063,–,–,0.0305,89.2,0.01
Fc1ccc(-c2cccc3[nH]c(-c4n[nH]c5ccc(-c6cncnc6)nc45)nc23)cc1,> 10,3,> 10,> 10,–,–

Compound,EC50 [1] [µM],EC50 [2] [µM],EC50 [3] [µM],EC50 [4] [µM],Emax at 0.3 µM [5] [%],EC50 [6] [µM]
c1cncc(-c2ccc3[nH]nc(-c4nc5c(-c6cccnc6)ccnc5[nH]4)c3n2)c1,0.028,–,–,1.51,94.6,0.3
CC(C)Nc1cncc(-c2ccc3[nH]nc(-c4nc5c(-c6ccoc6)nccc5[nH]4)c3c2)c1,0.044,–,–,0.0435,90.2,0.03
CN1CCN(c2cccc3[nH]c(-c4n[nH]c5ccc(-c6cncc(CN7CCCCC7)c6)cc45)cc23)CC1,0.035,–,–,4.97,198,0.1
O=C(Nc1cccnc1)Nc1c[nH]nc1C(=O)Nc1ccc(C(F)(F)F)nc1,0.022,0.0087,> 10,0.679,–,–
O=C(Nc1cc2cc(-c3cnco3)cnc2cn1)[C@H]1CC[C@H](CO)CC1,–,–,> 10,> 10,–,–
c1cncc(-c2ccc3[nH]nc(-c4nc5c(-c6cccnc6)cncc5[nH]4)c3c2)c1,0.076,–,–,0.035,159,0.03
O=C(Nc1cncc(-c2cc3c(-c4cc5cnccc5[nH]4)n[nH]c3cn2)c1)c1ccccc1,0.003,–,–,0.58,152,0.01
O=C(Nc1cncc(-c2ccc3[nH]nc(-c4cc5c(-c6ccncc6)nccc5[nH]4)c3c2)c1)C1CCCC1,0.011,–,–,> 10,114,0.03
CN(C)CCNc1cc(F)cc(-c2cncc3[nH]c(-c4n[nH]c5ncc(-c6cccnc6)cc45)nc23)c1,0.005,–,–,0.021,129,0.3
Nc1cncc(-c2ccc3[nH]nc(-c4nc5c(-c6ccccc6F)cncc5[nH]4)c3n2)c1,0.007,–,–,> 10,98.2,0.01
Fc1ccc(-c2cncc3[nH]c(-c4n[nH]c5cnc(-c6cncc(CN7CCC(F)(F)C7)c6)cc45)cc23)cc1,0.03,–,–,3.26,78.4,0.1
CC(C)C(=O)Nc1cncc(-c2ccc3[nH]nc(-c4nc5c(-c6ccccc6F)cncc5[nH]4)c3n2)c1,0.03,–,–,> 10,181,0.01
CN(C)c1cncc(-c2cc3c(-c4cc5cnccc5[nH]4)n[nH]c3cn2)c1,0.012,–,–,3.06,101,0.3
O=C(Nc1cc2cc(-c3cncs3)ccc2cn1)C1(F)CCCCC1,0.008,3,> 10,> 10,–,–
O=C(Nc1cncc(-c2cnc3[nH]nc(-c4nc5c(-c6cccc(F)c6)cncc5[nH]4)c3c2)c1)C1CC1,0.075,–,–,0.011,148,0.01
CC(C)N1CCC(c2nc(C(=O)Nc3cc4cc(-c5cnn(C)c5)ccc4cn3)co2)CC1,–,0.0573,0.02,0.08,–,–
COc1cncc(-c2ccc3[nH]nc(-c4nc5c(N6CCCCC6)ccnc5[nH]4)c3n2)c1,> 10,0.123,> 10,> 10,–,–
Nc1cncc(-c2ccc3[nH]nc(-c4nc5c(-c6ccccc6F)nccc5[nH]4)c3n2)c1,0.008,–,–,> 10,108,0.01
O=C(Nc1cncc(-c2ccc3[nH]nc(-c4nc5c(-c6ccc(F)cc6)cncc5[nH]4)c3c2)c1)C1CCC1,0.073,–,–,0.0057,203,0.1
O=C(Cc1ccccc1)Nc1cncc(-c2ccc3[nH]nc(-c4nc5c(-c6ccncc6)ccnc5[nH]4)c3n2)c1,> 10,–,> 10,> 10,–,–
CN(C)CCNc1cc(F)cc(-c2cccc3[nH]c(-c4n[nH]c5ncc(-c6ccncc6)cc45)cc23)c1,> 10,0.004,> 10,6.07,–,–
O=C(Nc1cccnc1)c1n[nH]cc1C#Cc1cncc(OC2CCNCC2)c1,0.024,0.0002,> 10,1.27,–,–
O=C(Nc1ccnc(C(F)(F)F)c1)c1n[nH]c2ccc(-c3cncc(CN4CCCCC4)c3)cc12,0.004,–,–,0.0364,69,0.1
Nc1cncc(-c2cnc3[nH]nc(-c4nc5c(-c6ccccc6F)ccnc5[nH]4)c3c2)c1,0.05,–,–,0.0123,59.9,0.3
Cc1n[nH]c2cc(F)c(-c3cncc(CN4CCCCC4)n3)cc12,0.06,3,3.38,2.44,–,–
